Measured values from the Kinase Knowledgebase extract (Sharma et al. 2016).

Target: MAPK14 (human) (UniProt Q16539)
Test: Inhibition of MAPK14 Kinase Activity

MAPK14 (human), sequence (Q16539 whole entry, looked up): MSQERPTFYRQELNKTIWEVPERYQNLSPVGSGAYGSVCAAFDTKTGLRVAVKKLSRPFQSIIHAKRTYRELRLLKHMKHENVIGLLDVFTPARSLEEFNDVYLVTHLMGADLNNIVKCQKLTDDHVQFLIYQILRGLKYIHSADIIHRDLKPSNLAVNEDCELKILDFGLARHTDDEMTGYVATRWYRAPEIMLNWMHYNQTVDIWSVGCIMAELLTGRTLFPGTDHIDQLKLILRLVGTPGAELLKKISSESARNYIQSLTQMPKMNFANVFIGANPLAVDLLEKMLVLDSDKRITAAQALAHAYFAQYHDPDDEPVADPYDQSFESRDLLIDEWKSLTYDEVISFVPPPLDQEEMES

IC50, < 1 µM:
NC[C@H]1CCCN1C(=O)c1sc2c(ccc(=O)n2-c2ccccc2)c1Nc1ccc(F)cc1F
Cc1ccc(-n2c(=O)ccc3c(Nc4ccc(F)c(C)c4)c(C(=O)N4CCC[C@@H]4CO)sc32)cc1
N#Cc1ccccc1Nc1c(C(=O)N2CCC[C@@H]2CO)sc2c1ccc(=O)n2-c1ccccc1
O=C(c1sc2c(ccc(=O)n2-c2ccccc2)c1Nc1ccc(F)cc1F)N1CCC[C@H]1CO
O=C(c1sc2c(ccc(=O)n2-c2ccc(F)cc2)c1Nc1ccc(F)cc1F)N1CC[C@H](O)C1
CN(C)[C@H]1CCN(C(=O)c2sc3c(ccc(=O)n3-c3ccccc3)c2Nc2ccc(F)cc2F)C1
Cc1ccc(-n2c(=O)ccc3c(Nc4ccc(F)cc4F)c(C(=O)N4CCC[C@@H]4CO)sc32)cc1
CC(C)(O)[C@H]1CCCN1C(=O)c1sc2c(ccc(=O)n2-c2ccccc2)c1Nc1ccc(F)cc1F
Cc1cc(Nc2c(C(=O)N3CC[C@H](N(C)C)C3)sc3c2ccc(=O)n3-c2ccccc2)ccc1F
CC(C)(O)[C@@H]1CCCN1C(=O)c1sc2c(ccc(=O)n2-c2ccccc2)c1Nc1ccc(F)cc1F
O=C(c1sc2c(ccc(=O)n2-c2ccccc2)c1Nc1ccc(F)cc1F)N1C[C@H](O)[C@@H](O)C1
O=C(c1sc2c(ccc(=O)n2-c2ccccc2)c1Nc1ccccc1Cl)N1CCC[C@@H]1CO
O=C(c1sc2c(ccc(=O)n2-c2ccccc2)c1Nc1ccc(F)cc1F)N1C[C@@H](O)[C@H](O)C1
Cc1cc(Nc2c(C(=O)N3CC[C@@H](O)C3)sc3c2ccc(=O)n3-c2ccccc2)ccc1F
Cc1cc(Nc2c(C(=O)N3CCC[C@@H]3CO)sc3c2ccc(=O)n3-c2ccc(F)cc2)ccc1F
Cc1ccc(-n2c(=O)ccc3c(Nc4ccc(F)cc4F)c(C(=O)N4CC[C@H](O)C4)sc32)cc1
Cc1cc(Nc2c(C(=O)N3CCC[C@@H]3CO)sc3c2ccc(=O)n3-c2ccccc2Cl)ccc1F
O=C(c1sc2c(ccc(=O)n2-c2ccccc2)c1Nc1ccccc1Cl)N1CCC[C@H]1CO
N#Cc1ccccc1Nc1c(C(=O)N2CC[C@H](O)C2)sc2c1ccc(=O)n2-c1ccccc1
Cc1cccc(Nc2c(C(=O)N3CC[C@H](O)C3)sc3c2ccc(=O)n3-c2ccccc2Cl)c1
O=C(c1sc2c(ccc(=O)n2-c2ccccc2)c1Nc1ccc(F)cc1F)N1CC(O)C1
Cc1cccc(-n2c(=O)ccc3c(Nc4ccc(F)c(C)c4)c(C(=O)N4CCC[C@@H]4CO)sc32)c1
Cc1cc(Nc2c(C(=O)N3CC[C@@H](N(C)C)C3)sc3c2ccc(=O)n3-c2ccccc2)ccc1F
O=c1ccc2c(Nc3ccc(F)cc3F)c(S(=O)(=O)N3CCC[C@@H]3CO)sc2n1-c1ccccc1
COC[C@H]1CCCN1C(=O)c1sc2c(ccc(=O)n2-c2ccccc2)c1Nc1ccccc1
O=C(c1sc2c(ccc(=O)n2-c2ccccc2)c1Nc1ccc(F)cc1F)N1CC[C@@H](O)C1
N[C@@H]1CCN(C(=O)c2sc3c(ccc(=O)n3-c3ccccc3)c2Nc2ccc(F)cc2F)C1
O=C(c1sc2c(ccc(=O)n2-c2ccccc2)c1Nc1ccc(F)cc1F)N1CCC(O)CC1
Cc1cc(Nc2c(C(=O)N3CCC[C@H]3CO)sc3c2ccc(=O)n3-c2ccccc2)ccc1F
CN(C)C1CCN(C(=O)c2sc3c(ccc(=O)n3-c3ccccc3)c2Nc2ccc(F)cc2F)CC1
Cc1cccc(Nc2c(C(=O)N3CCC[C@@H]3CO)sc3c2ccc(=O)n3-c2cccc(C)c2)c1
Cc1cc(Nc2c(C(=O)N3CCC[C@@H]3CO)sc3c2ccc(=O)n3-c2ccccc2)ccc1F
O=C(c1sc2c(ccc(=O)n2-c2ccc(F)cc2)c1Nc1ccc(F)cc1F)N1CC[C@@H](O)C1
NC[C@@H]1CCCN1C(=O)c1sc2c(ccc(=O)n2-c2ccccc2)c1Nc1ccc(F)cc1F
Cc1cc(Nc2c(C(=O)N3CC[C@H](O)C3)sc3c2ccc(=O)n3-c2ccccc2)ccc1F
Cc1cccc(-n2c(=O)ccc3c(Nc4ccc(F)c(C)c4)c(C(=O)N4CCC[C@H]4CO)sc32)c1
O=C(c1sc2c(ccc(=O)n2-c2ccccc2Cl)c1Nc1ccc(F)cc1F)N1CC[C@@H](O)C1
Cc1ccc(-n2c(=O)ccc3c(Nc4ccc(F)cc4F)c(C(=O)N4CC[C@@H](O)C4)sc32)cc1
COC[C@@H]1CCCN1C(=O)c1sc2c(ccc(=O)n2-c2ccccc2)c1Nc1ccccc1
Cc1cc(Nc2c(C(=O)N3CC[C@@H](N)C3)sc3c2ccc(=O)n3-c2ccccc2)ccc1F
N#Cc1ccccc1Nc1c(C(=O)N2CC[C@@H](O)C2)sc2c1ccc(=O)n2-c1ccccc1
NC1CN(C(=O)c2sc3c(ccc(=O)n3-c3ccccc3)c2Nc2ccc(F)cc2F)C1
Cc1cc(Nc2c(C(=O)N3CCC[C@H]3CN)sc3c2ccc(=O)n3-c2ccccc2)ccc1F
O=C(c1sc2c(ccc(=O)n2-c2ccccc2)c1Nc1ccc(F)cc1F)N1C[C@@H](O)[C@@H](O)C1
CN(C)C1CN(C(=O)c2sc3c(ccc(=O)n3-c3ccccc3)c2Nc2ccc(F)cc2F)C1
O=C(c1sc2c(ccc(=O)n2-c2ccccc2)c1Nc1cccc(Cl)c1)N1CCC[C@@H]1CO
O=C(c1sc2c(ccc(=O)n2-c2ccccc2)c1Nc1ccc(F)cc1F)N1CCC[C@@H]1CO
Cc1cc(Nc2c(C(=O)N3CC(O)C3)sc3c2ccc(=O)n3-c2ccccc2)ccc1F
O=C(c1sc2c(ccc(=O)n2-c2ccccc2Cl)c1Nc1ccc(F)cc1F)N1CC[C@H](O)C1
NC1CCN(C(=O)c2sc3c(ccc(=O)n3-c3ccccc3)c2Nc2ccc(F)cc2F)C1 (configuration not stated)
O=C(c1sc2c(ccc(=O)n2-c2ccccc2)c1Nc1ccc(F)cc1F)N1CC[C@H](O)C1
Cc1cc(Nc2c(C(=O)N3CC[C@H](O)C3)sc3c2ccc(=O)n3-c2ccccc2Cl)ccc1F
O=C(c1sc2c(ccc(=O)n2-c2ccccc2)c1Nc1ccc(F)c(Cl)c1)N1CCC[C@H]1CO
O=C(c1sc2c(ccc(=O)n2-c2ccccc2Cl)c1Nc1ccc(F)cc1F)N1CCC[C@@H]1CO
Cc1ccc(-n2c(=O)ccc3c(Nc4ccc(F)c(C)c4)c(C(=O)N4CC[C@@H](O)C4)sc32)cc1
O=C(c1sc2c(ccc(=O)n2-c2ccccc2)c1Nc1ccccc1)N1CCC[C@H]1CO
NC1CCN(C(=O)c2sc3c(ccc(=O)n3-c3ccccc3)c2Nc2ccc(F)cc2F)CC1
O=C(c1sc2c(ccc(=O)n2-c2ccccc2)c1Nc1ccc(F)cc1F)N1CCCC(O)C1 (configuration not stated)
N#Cc1ccccc1Nc1c(C(=O)N2CCC[C@H]2CO)sc2c1ccc(=O)n2-c1ccccc1
Cc1cc(Nc2c(C(=O)N3CC[C@H](O)C3)sc3c2ccc(=O)n3-c2ccc(F)cc2)ccc1F
O=C(c1sc2c(ccc(=O)n2-c2ccccc2)c1Nc1ccccc1)N1CCC[C@@H]1CO
N[C@H]1CCN(C(=O)c2sc3c(ccc(=O)n3-c3ccccc3)c2Nc2ccc(F)cc2F)C1
O=C(c1sc2c(ccc(=O)n2-c2ccc(F)cc2)c1Nc1ccc(F)cc1F)N1CCC[C@@H]1CO
Cc1cc(Nc2c(C(=O)N3CC[C@H](N)C3)sc3c2ccc(=O)n3-c2ccccc2)ccc1F
Cc1ccc(-n2c(=O)ccc3c(Nc4cccc(C)c4)c(C(=O)N4CCC[C@@H]4CO)sc32)cc1
O=C(c1sc2c(ccc(=O)n2CC2CC2)c1Nc1ccccc1)N1CCC[C@@H]1CO
Cc1cc(Nc2c(C(=O)N3CCC[C@@H]3CO)sc3c2ccc(=O)n3-c2ccc(Cl)cc2)ccc1F
Cc1ccc(-n2c(=O)ccc3c(Nc4ccc(F)c(C)c4)c(C(=O)N4CC[C@H](O)C4)sc32)cc1
Cc1cccc(Nc2c(C(=O)N3CCC[C@@H]3CO)sc3c2ccc(=O)n3-c2ccccc2)c1
N#Cc1cccc(Nc2c(C(=O)N3CCC[C@@H]3CO)sc3c2ccc(=O)n3-c2ccccc2)c1
CN(C)[C@@H]1CCN(C(=O)c2sc3c(ccc(=O)n3-c3ccccc3)c2Nc2ccc(F)cc2F)C1
O=C(c1sc2c(ccc(=O)n2-c2ccccc2)c1Nc1ccc(F)c(Cl)c1)N1CCC[C@@H]1CO
